Values quoted from earlier work as cited in US20040121025A1, “Oral composition for the treatment and prevention of bone loss” (priority 2002, published 2004).

Experiments:
[1] = test system: bone mineral density; settings: women treated with Lupron for six months; supplemental calcium; placebo decreased significantly
[2] = test system: bone mass
[3] = test system: parathyroid hormone, vitamin D, prostaglandin E2, and interleukin 1-beta; settings: animal study, prostaglandin E2, interleukin 1-beta
[4] = test system: osteoporosis; settings: elderly women over the age of 65
[5] = test system: osteoporosis; settings: including a form of vitamin D commonly used for osteoporosis
[6] = test system: bone loss; settings: animal studies
[7] = test system: bone loss; settings: men
[8] = test system: bone loss; settings: animal studies; remark: listed apart in the source
[9] = test system: bone loss; settings: premenopausal women
[10] = test system: estrogen like effects; settings: unlike many of the other isoflavones
[11] = test system: parathyroid-stimulated osteoclastic activity; settings: ipriflavone supplementation in rats
[12] = test system: bone mass; settings: 200 mg three times daily; two years; women age 50-65; placebo groups had significant bone loss
[13] = test system: bone demineralization / bone loss; settings: with supplemental calcium

CC(C)Oc1ccc2c(=O)c(-c3ccccc3)coc2c1 [ipriflavone, 7-isopropoxysioflavone]
bone density [1]: no changes in bone density | maintaining bone mass with lower doses of estrogen ([2]; 0.15-0.30 mg/day estrogen with ipriflavone versus 0.625 mg/day or higher): equally effective in maintaining bone mass | effect on the effects of estrogen on bone ([2]; in vivo): enhance the effects of estrogen on bone | inhibition of compounds involved in increased resorption of bone [3]: inhibited a number of compounds known to be involved in increased resorption of bone | treatment of osteoporosis [4]: particularly effective | effect on other bone-preserving agents [5]: enhance the effect of other bone-preserving agents | bone loss associated with long term steroid use [6]: inhibited bone loss | preventing bone loss [7]: effective in preventing bone loss in men | bone loss associated with immobilization [8]: inhibited bone loss | rapid bone loss that follows ovariectomy [9]: prevents the rapid bone loss that follows ovariectomy | estrogen like effects [10]: does not exhibit estrogen like effects | parathyroid-stimulated osteoclastic activity and resulting hypercalcemia [11]: inhibited in a dosedependent manner | bone mass [12]: maintained or improved slightly | safety and efficacy in halting bone loss ([13]; post-menopausal women or women who have had their ovaries removed): safe and effective in halting bone loss | halting bone demineralization ([13]; postmenopausal women): effective in halting bone demineralization
